Experimental data taken from US20260265329A1, “POLYPEPTIDE AND DERIVATIVE THEREOF, COMPOSITION, AND USE THEREOF” (HANGZHOU SCIWIND BIOSCIENCES CO., LTD., priority 2023, published 2026).
Blank lines part the entries; values can stand above or below the compound they belong to. Starred links: 1 amine or outer side, 2 acyl side, 3 side chain; linkers in the order of their positions; H or OH if unused. Non-standard residues stand in square brackets, D forms with d. Residues, ends and D or L forms follow the SMILES beside them. *: point of attachment. C20 diacid = O=C(O)CCCCCCCCCCCCCCCCCCC(=O)*; γGlu = O=C(O)[C@H](CCC(=O)[*:2])N[*:1]; Hyp = O=C(O)[C@@H]1C[C@@H](O)CN1

Key:
[1] = Efficacy assay in SD rats, dose-dependent study (Example 5); assay type: in vivo
Procedure: SPF male SD rats (7-8 weeks, 220-230 g) were employed in this study after health inspection and quarantine. The experimental animals were exposed to a room temperature of 20° C.-23° C. and a relative humidity of 40%-50%, and were provided with Co60 mouse reproduction feed 1035 and purified water supplied with water feeding bottles for free intake throughout the health inspection and quarantine and the study. […] Using a single dose administered via subcutaneous injection, the study lasted for a total of 6 days with the day of administration designated as Day 1/Time 0 (TO), wherein on Day 0, the initial body weight of the animals were recorded and the initial feed was added, and on Day 1-Day 5, the body weight of the studied animals as well as the remaining food were recorded daily for calculating the percentage of weight change and the amount of food intake, any anomalies during which were required to be recorded and reported. During the study, the rats were in good condition and no anomaly was observed. Weight change=(BWTn−BWT0)/BWT0* 100%, wherein BW represented the value of body weight, and T0 and Tn represented the time points of dosing and n hours post dose respectively. Dots in the figures were represented utilizing mean±standard error of the mean (SEM). Accumulated food intake was the total amount of food intake for each of the animals prior to a certain time point post dose.

[2] = in vivo; design: species or system SD rats; settings: rat, sc, 1 mg/kg
Procedure: The animals received a subcutaneous injection of corresponding compounds for testing (1 mg/kg and 5 ml/kg), and the day of administration was designated as D1. The whole blood of the animals was collected pre dose (-10 min) on D1 and post dose at D1-2h, D1-4h, D1-6h, D2-24h, D3-48h, D4-72h, D5-96h, and D6-120 h and was processed into plasma (using EDTA for anticoagulation). Liquid chromatography-tandem mass spectrometry (LC-MS/MS) was used to detect the concentration of drug molecules in the plasma, and GraphPad Prism 10 was utilized to plot a concentration-time curve for the drugs whose pharmacokinetic parameters including Cmax, Tmax, T1/2, AUC, and MRT were then calculated with PKSolver.

[3] = target: T1, human amylin receptors (Homo sapiens, UniProt O60896+P30988); test: Luciferase assay in stably transfected amylin receptor/CRE-luc CHO cell line; assay type: cell-based; settings: for Relative activity: EC50 ratio of Cagrilintide to the compound, Cagrilintide 100%
T1 construct: host or cells: CHO-K1/Ga15/AMY3 cells, further stably transfected with a CRE-luciferase plasmid
T1 sequence (P30988 25-474): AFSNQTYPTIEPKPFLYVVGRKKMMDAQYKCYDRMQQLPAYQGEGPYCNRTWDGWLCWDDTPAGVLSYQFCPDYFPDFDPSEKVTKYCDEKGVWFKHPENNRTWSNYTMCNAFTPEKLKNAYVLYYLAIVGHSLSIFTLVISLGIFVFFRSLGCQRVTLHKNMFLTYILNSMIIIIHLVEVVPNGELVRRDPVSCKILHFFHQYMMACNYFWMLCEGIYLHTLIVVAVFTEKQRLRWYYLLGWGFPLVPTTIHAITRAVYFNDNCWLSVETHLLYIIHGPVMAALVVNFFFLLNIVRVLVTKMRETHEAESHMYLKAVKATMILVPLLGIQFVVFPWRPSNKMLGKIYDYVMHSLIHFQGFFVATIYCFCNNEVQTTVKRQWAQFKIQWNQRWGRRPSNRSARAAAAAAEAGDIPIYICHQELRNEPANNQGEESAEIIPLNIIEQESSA
T1 sequence (O60896 24-148 partner): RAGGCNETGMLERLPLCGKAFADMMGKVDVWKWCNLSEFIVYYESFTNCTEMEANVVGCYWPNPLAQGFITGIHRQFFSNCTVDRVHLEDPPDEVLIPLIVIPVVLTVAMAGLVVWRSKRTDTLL

[4] = Efficacy assay in DIO SD rats, dose-dependent study (Example 6); assay type: in vivo
Procedure: SPF male DIO SD rats (36-37 weeks, […], fed with high-fat diet for 34 weeks from 3-week age on) were employed in this study. The experimental animals were exposed to a room temperature of 20° C.-23° C. and a relative humidity of 40%-50%, and were provided with high-fat diet D12492 and purified water supplied with water feeding bottles for free intake throughout the construction of the DIO animal model and the study. Based on their mean body weight, the animals were assigned to 6 groups designated as B1-B6 (n=5). Administration via subcutaneous injection was conducted once a day for 10 continuous days, wherein the first day of administration was designated as Day 1 (D1), and on Day 0, the initial body weight of the animals were recorded and the initial feed was added, and on Day 1-Day 11, the body weight of the studied animals as well as the remaining food were recorded daily for calculating the percentage of weight change and the amount of food intake, any anomalies during which were required to be recorded and reported. During the study, the rats were in good condition and no anomaly was observed. Weight change=(BWDn−BWD1)/BWD1*100%, wherein BW represented the value of body weight, and D1 and Dn represented the first and Nth days of administration respectively. Dots in the figures were represented utilizing mean±standard error of the mean (SEM). Accumulated food intake was the total amount of food intake for animals of each group prior to a certain time point post dose.

[5] = Heat accelerated stability assay, 40° C., detection on 10 d and 20 d; assay type: physicochemical; settings: 1 mg/mL, pH about 7.4, 40° C.
Procedure: The derivatives (1 mg/mL) were mixed with sodium dihydrogen phosphate (1.42 mg/mL) and dissolved in ultrapure water. After adjusting pH to about 7.4 with hydrochloric acid/sodium hydroxide, the solution was filtered into a sterilized vial in a clean bench using a 0.22 μm sterile filter. The vial was then capped and placed into the stability test chamber at 40° C. Detections were made on 10d and 20d, and during the assay changes in the characteristics and properties of the polypeptides were observed and recorded. The sample was then centrifuged for 3 min at 10000 rpm at 4° C., and the supernatant was transferred to a liquid phase sample vial for detecting the concentration and purity of the polypeptides using liquid phase chromatography described as below.
Flow rate: 1.0 mL/min; Autosampler temperature: 25° C.; Column temperature: 25° C.; Detection wavelength: 214 nm; Mobile phase A: 110 mM phosphate buffer (pH 5.8): ACN=90:10; Mobile phase B: ACN: IPA: H2O=85:5:10; and Gradient of elution listed in Table 6: […]

[6] = Heat accelerated stability assay, 40° C., detection on 7 d and 28 d; assay type: physicochemical
Outline: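 Derivatives at 1 mg/mL in water with sodium dihydrogen phosphate (1.42 mg/mL), pH about 7.4, sterile-filtered, stored sealed at 40° C. On days 7 and 28, appearance noted; after centrifugation, supernatant concentration and purity measured by reversed-phase HPLC at 214 nm (water/0.05% TFA–acetonitrile gradient).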

[7] = single subcutaneous dose 10, 30, 100 nmol/kg (FIGS. 3A-3D)
[8] = subcutaneous once a day for 10 days, 3 and 10 nmol/kg (FIGS. 4A, 4B)

AUC(0-inf) ([2]; male, SD): 217 µg·h/mL
AUC(0-t) ([2]; male, SD): 214 µg·h/mL
Cmax ([2]; male, SD): 4930 ng/mL
MRT inf ([2]; male, SD): 39 h
Tmax ([2]; male, SD): 24 h
half-life ([2]; male, SD): 21.3 h
Relative activity [3]: 180%
EC50 ([3]; amylin receptor/CRE-luc CHO cells, 24 hours incubation, luminescence): 0.05 nM
Reduction in purity, 10 d [5]: 3.6%
Reduction in purity, 20 d ([5]; 20 d): 6.6%
SMILES: CC[C@H](C)[C@H](NC(=O)[C@@H]1CCCN1C(=O)[C@H](CCCCN)NC(=O)[C@H](CC(C)C)NC(=O)[C@H](CO)NC(=O)[C@H](CO)NC(=O)[C@H](CO)NC(=O)[C@H](CO)NC(=O)[C@H](Cc1c[nH]cn1)NC(=O)[C@H](CCCNC(=N)N)NC(=O)[C@H](CC(C)C)NC(=O)[C@H](Cc1ccccc1)NC(=O)[C@H](CC(=O)O)NC(=O)[C@H](C)NC(=O)[C@H](CC(C)C)NC(=O)[C@H](CCCNC(=N)N)NC(=O)[C@H](CCC(N)=O)NC(=O)[C@@H](NC(=O)[C@H](C)NC(=O)[C@H](C)NC(=O)[C@@H](NC(=O)[C@H](CO)NC(=O)[C@H](CC(C)C)NC(=O)[C@H](CCC(N)=O)NC(=O)[C@H](CO)NC(=O)[C@H](C)NC(=O)CC[C@H](NC(=O)CCCCCCCCCCCCCCCCCCC(=O)O)C(=O)O)[C@@H](C)O)[C@@H](C)O)C(=O)N[C@@H](CC(C)C)C(=O)N1CCC[C@H]1C(=O)N1CCC[C@H]1C(=O)N[C@H](C(=O)N[C@@H](CC(N)=O)C(=O)N[C@H](C(=O)NCC(=O)N[C@@H](CO)C(=O)N[C@@H](CC(N)=O)C(=O)N[C@H](C(=O)N1C[C@H](O)C[C@H]1C(N)=O)[C@@H](C)O)C(C)C)[C@@H](C)O [M43] ({C20 diacid-γGlu}-ASQLSTAATQRLADFLRHSSSSLKPILPPTNVGSNT[Hyp]-NH2)
Body weight and food intake reduction compared with Cagrilintide ([1]; equivalent dosage): performed better than Cagrilintide at the equivalent dosage
Effect on body weight [1, 7]: dose-dependently reduced
Effect on food intake [1, 7]: dose-dependently reduced
Body weight and food intake reduction compared with Cagrilintide ([4]; equivalent dosage): performed better than Cagrilintide at the equivalent dosage
Effect on body weight [4, 8]: dose-dependently reduced
Effect on food intake [4, 8]: dose-dependently reduced

AUC(0-inf) [2]: 177 µg·h/mL
AUC(0-t) [2]: 173 µg·h/mL
Cmax [2]: 3270 ng/mL
MRT inf [2]: 43.4 h
Tmax [2]: 24 h
half-life [2]: 24.7 h
Relative activity [3]: 100%
Reduction in purity, 10 d [5]: 44.83%
Purity from the reversed phase chromatography-214 nm, 0 d ([6]; 1 mg/mL, pH about 7.4, 40° C., 0 d): 90.04
Purity from the reversed phase chromatography-214 nm, 7 d ([6]; 1 mg/mL, pH about 7.4, 40° C., 7 d): 82.03
Purity from the reversed phase chromatography-214 nm, 28 d ([6]; 1 mg/mL, pH about 7.4, 40° C., 28 d): 73.89
Change (7 d − 0 d) ([6]; purity on 7 d − purity on 0 d, 40° C., pH about 7.4): −8.01
Change (28 d − 0 d) ([6]; purity on 28 d − purity on 0 d, 40° C., pH about 7.4): −16.15
SMILES: CC[C@H](C)[C@H](NC(=O)[C@@H]1CCCN1C(=O)CNC(=O)[C@H](Cc1ccccc1)NC(=O)[C@H](CC(N)=O)NC(=O)[C@H](CC(N)=O)NC(=O)[C@H](CO)NC(=O)[C@H](CO)NC(=O)[C@H](Cc1c[nH]cn1)NC(=O)[C@H](CCCNC(=N)N)NC(=O)[C@H](CC(C)C)NC(=O)[C@H](Cc1ccccc1)NC(=O)[C@H](CCC(=O)O)NC(=O)[C@H](C)NC(=O)[C@H](CC(C)C)NC(=O)[C@H](CCCNC(=N)N)NC(=O)[C@H](CCC(N)=O)NC(=O)[C@@H](NC(=O)[C@H](C)NC(=O)[C@@H]1CSSC[C@H](NC(=O)[C@H](CCCCN)NC(=O)CC[C@H](NC(=O)CCCCCCCCCCCCCCCCCCC(=O)O)C(=O)O)C(=O)N[C@@H](CC(N)=O)C(=O)N[C@@H]([C@@H](C)O)C(=O)N[C@@H](C)C(=O)N[C@@H]([C@@H](C)O)C(=O)N1)[C@@H](C)O)C(=O)N[C@@H](CC(C)C)C(=O)N1CCC[C@H]1C(=O)N1CCC[C@H]1C(=O)N[C@H](C(=O)N[C@@H](CC(N)=O)C(=O)N[C@H](C(=O)NCC(=O)N[C@@H](CO)C(=O)N[C@@H](CC(N)=O)C(=O)N[C@H](C(=O)N1CCC[C@H]1C(N)=O)[C@@H](C)O)C(C)C)[C@@H](C)O [Cagrilintide, reference compound]
